Measurements as given in patent US20220401514A1, “ANTIMICROBIAL, BACTERIOPHAGE-DERIVED POLYPEPTIDES AND THEIR USE AGAINST GRAM-NEGATIVE AND ACID-FAST BACTERIA” (CONTRAFECT CORPORATION, priority 2019, published 2022).
≈ marks a conversion by molar mass, not a printed value.

Assays:
[1] = system: P. aeruginosa strain CFS-1292; experiment: LIVE/DEAD stain microscopy in 100% human serum; format: cell-based, Pseudomonas aeruginosa; conditions: 15 minutes, 10 μg/mL
Excerpt: Samples were visualized by BF and fluorescence microscopy (10 ms exposure). […] was used to label live cells, and PI was used to label damaged and dead cells.

[2] = system: isolates identified as having novel antibiotic resistance; experiment: MIC against CDC novel antibiotic resistance panel (n = 11); format: cell-based
Experimental: MIC values were determined using the methodology described above, i.e., the standard broth microdilution reference method defined by CLSI.
See wwwn.cdc.gov/ARIsolateBank/Panel/PanelDetail?ID=10.

[3] = system: P. aeruginosa strain PA20 persister cells; experiment: Activity against persister cells, P. aeruginosa; format: cell-based, Pseudomonas aeruginosa
[4] = system: inner membrane of Gram-negative bacteria (including P. aeruginosa, E. cloacae, K. pneumoniae, E. coli, and A. baumannii); experiment: Inner membrane depolarization, diSC3-5 release; format: cell-based
Excerpt: The mechanism of action of Chp peptides disclosed herein can also be evaluated by measuring the depolarization of the inner membrane of Gram-negative bacteria. […] Upon permeabilization of the outer membrane, the ability of Chp peptides to induce dissipation of the cytoplasmic membrane electrical potential gradient (Δψ) may be examined, for example by following the release of 3,3′-dipropylthiadicarbocyanine (diSC3-5) as a function of time compared to an untreated control. DiSC3-5 is a fluorophore that is a caged cation concentrated within the bacterial inner membrane and under the influence of the bacterial membrane electrical potential gradient. At high concentrations, diSC3-5 self-quenches, leading to the suppression of fluorescence. When the inner membrane deteriorates or becomes leaky for cations, including protons, the A it dissipates, which leads to a release of diSC3-5 and a subsequent increase in fluorescence.

[5] = system: Gram-negative bacteria (including P. aeruginosa, E. cloacae, K. pneumoniae, E. coli, and A. baumannii); experiment: Propidium iodide uptake; format: cell-based
Excerpt: The damage caused by the Chp peptides disclosed herein to the outer and inner membranes of Gram-negative bacteria can also be assessed with impermeable dyes such as propidium iodide. […] AGENTS CHEMO. 2012; 56:5698-5708.

[6] = system: Mycobacterium tuberculosis strains; experiment: microbe, parasite or virus in culture
Experimental: MIC values for various Chp peptides were determined using the CLSI method for broth microdilution in 96-well microtiter format.
Next, MIC values for various Chp peptides were determined using the CLSI method above for broth microdilution in 96-well microtiter format for two different Mycobacterium tuberculosis strains. The MIC was determined as explained above for the NTM strains.

[7] = novel antibiotic resistance panel

Question: “MRLKMARRRYRLPRRRSRRLFSRTALRMHPRNRLRRIMRGGIRF [Chp2]” was tested. Which “killing of P. aeruginosa, Live/Dead Cell Viability Kit” value [1] did it give?
Answer: reduction of live bacteria

Question: And the MIC ([2]; Bank No. 0346, Escherichia coli)?
Answer: 0.25 µg/mL

Question: And the MIC ([2]; Bank No. 0347, Klebsiella pneumoniae)?
Answer: 0.5 µg/mL

Question: And the MIC ([2]; Bank No. 0348, Escherichia coli)?
Answer: 0.5 µg/mL

Question: And the MIC ([2]; Bank No. 0349, Escherichia coli)?
Answer: 1 µg/mL

Question: What about the MIC ([2]; Bank No. 0350, Escherichia coli) of the same compound?
Answer: 1 µg/mL

Question: And the MIC ([2]; Bank No. 0493, Escherichia coli)?
Answer: 0.5 µg/mL

Question: And the MIC ([2]; Bank No. 0494, Escherichia coli)?
Answer: 1 µg/mL

Question: And the MIC ([2]; Bank No. 0495, Escherichia coli)?
Answer: 1 µg/mL

Question: What about the MIC ([2]; Bank No. 0497, Klebsiella pneumoniae) of the same compound?
Answer: 0.5 µg/mL

Question: What about the MIC ([2]; Bank No. 0538, Escherichia coli) of the same compound?
Answer: 1 µg/mL

Question: And the MIC ([2]; Bank No. 0637, Citrobacter freundi)?
Answer: 1 µg/mL

Question: And the MIC50 [2, 7]?
Answer: 0.5 µg/mL

Question: And the MIC90 [2, 7]?
Answer: 1 µg/mL

Question: What about the “Viable persister count after treatment (log10 CFU/mL)” value ([3]; P. aeruginosa PA20 persister cells, Run #1, limit of detection 2-log10 CFU/mL) of the same compound?
Answer: 2.7 Log10 (CFU/mL)

Question: What about the “Viable persister count after treatment (log10 CFU/mL)” value ([3]; P. aeruginosa PA20 persister cells, Run #2, limit of detection 2-log10 CFU/mL) of the same compound?
Answer: 2.3 Log10 (CFU/mL)

Question: What about the “Viable persister count after treatment (log10 CFU/mL)” value ([3]; P. aeruginosa PA20 persister cells, Run #3, limit of detection 2-log10 CFU/mL) of the same compound?
Answer: 2 Log10 (CFU/mL)

Question: What about the “Viable persister count after treatment (log10 CFU/mL)” value ([3]; P. aeruginosa PA20 persister cells, average of 3 runs) of the same compound?
Answer: 2.3 Log10 (CFU/mL)

Question: What about the “Delta Log” value ([3]; P. aeruginosa PA20 persister cells, log10 CFU/mL reduction as compared to buffer) of the same compound?
Answer: 2.1

Question: And the “log10 CFU/mL reduction as compared to buffer” value ([3]; P. aeruginosa persister cells, 1 hour at 37° C.)?
Answer: 2.1 log10 CFU/mL

Question: And the “membrane depolarization (diSC3-5)” value [4]?
Answer: dose-dependent increase in membrane depolarization, equivalent or superior to that of melittin, LL37, RI-18, and PMBN

Question: And the “cell envelop permeability (propidium iodide uptake)” value [5]?
Answer: dose-dependent increase in cell envelop permeability was equivalent to that of colistin, LL37, and melittin

Question: Which results are given for `NC[C@H]1O[C@H](O[C@H]2[C@H](O)[C@@H](O[C@H]3O[C@H](CO)[C@@H](O)[C@H](N)[C@H]3O)[C@H](N)C[C@@H]2N)[C@H](N)C[C@@H]1O` [tobramycin, reference compound]?
Answer: MIC ([6]; ATCC25177): 4 µg/mL (≈ 8.56 µM); MIC ([6]; ATCC35817): 4 µg/mL (≈ 8.56 µM)
